Measured values from ChEMBL document CHEMBL1165848, “Discovery of new cholesteryl ester transfer protein inhibitors via ligand-based pharmacophore modeling and QSAR analysis followed by synthetic exploration” (Eur J Med Chem, 2010).

Target: T1, Cholesteryl ester transfer protein (Oryctolagus cuniculus, UniProt P22687)
T1 sequence (P22687 whole entry): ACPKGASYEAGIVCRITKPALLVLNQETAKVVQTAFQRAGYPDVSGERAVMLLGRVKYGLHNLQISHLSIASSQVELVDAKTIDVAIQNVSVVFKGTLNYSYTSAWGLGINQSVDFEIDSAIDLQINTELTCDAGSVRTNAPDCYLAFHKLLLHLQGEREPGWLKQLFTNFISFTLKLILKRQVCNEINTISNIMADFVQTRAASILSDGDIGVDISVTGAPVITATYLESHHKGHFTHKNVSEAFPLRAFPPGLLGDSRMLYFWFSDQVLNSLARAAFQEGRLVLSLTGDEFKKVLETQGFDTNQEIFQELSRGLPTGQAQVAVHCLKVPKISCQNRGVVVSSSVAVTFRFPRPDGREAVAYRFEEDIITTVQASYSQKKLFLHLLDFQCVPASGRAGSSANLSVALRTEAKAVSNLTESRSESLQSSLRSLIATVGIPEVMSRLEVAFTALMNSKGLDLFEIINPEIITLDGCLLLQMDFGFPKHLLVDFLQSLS
Experiment: Inhibition of CETP in rabbit serum after 1 hr by fluorescent cholesteryl esters transfer assay
Conditions: read-out: IC50

| Compound | IC50 |
| --- | --- |
| OC(CN(Cc1cccc(-c2ccncc2)c1)c1cccc(Oc2ccccc2)c1)C(F)(F)F (stereo unspecified) | 6240 nM |
| Cc1ccccc1N(Cc1cccc(C(F)(F)F)c1)CC(O)C(F)(F)F (stereo unspecified) | > 100000 nM |
| OC(CN(Cc1cccc(Oc2ccccc2)c1)Cc1cccc(OC(F)(F)F)c1)C(F)(F)F (stereo unspecified) | 30000 nM |
| OC(CN(Cc1ccc2c(c1)OC(F)(F)C(F)(F)O2)c1cccc(Oc2ccccc2)c1)C(F)(F)F (stereo unspecified) | 12000 nM |
| OC(CN(Cc1cccc(-c2ncccc2C(F)(F)F)c1)c1cccc(Oc2ccccc2)c1)C(F)(F)F (stereo unspecified) | 4080 nM |
| Cc1cccnc1-c1cccc(CN(CC(O)C(F)(F)F)c2cccc(Oc3ccccc3)c2)c1 (stereo unspecified) | 15000 nM |
| CCc1cc(Oc2cccc(N(Cc3ccc(C(F)(F)F)cc3F)C[C@@H](O)C(F)(F)F)c2)ccc1Cl | 40 nM |
| Cc1ccc(N(Cc2cccc(C(F)(F)F)c2)CC(O)C(F)(F)F)cc1 (stereo unspecified) | > 100000 nM |
| OC(CN(Cc1cccc(OC(F)(F)F)c1)c1ccccc1Oc1ccccc1)c1ccc(C(F)(F)F)cc1 (stereo unspecified) | 18000 nM |
| OC(CN(Cc1cccc(C2CCCC2)c1)c1cccc(Oc2ccccc2)c1)C(F)(F)F (stereo unspecified) | 300 nM |
| OC(CN(Cc1cccc(OC(F)(F)C(F)F)c1)c1cccc(Oc2ccc(-c3ccccc3)cc2)c1)C(F)(F)F (stereo unspecified) | 2500 nM |
| OC(CN(Cc1cccc(-c2cccnc2)c1)c1cccc(Oc2ccccc2)c1)C(F)(F)F (stereo unspecified) | 14300 nM |
| Cc1ccccc1CN(CC(O)C(F)(F)F)c1cccc(F)c1 (stereo unspecified) | > 100000 nM |
| OC(CN(Cc1cccc(OC(F)(F)F)c1)c1ccc(Oc2ccccc2)cc1)C(F)(F)F (stereo unspecified) | 25000 nM |
| C=CC(O)CN(Cc1cccc(OC(F)(F)F)c1)c1ccccc1Oc1ccccc1 (stereo unspecified) | > 50000 nM |
| COC(=O)c1cccc(CN(CC(O)C(F)(F)F)c2cccc(Oc3ccccc3)c2)c1 (stereo unspecified) | 16000 nM |
| OC(CN(Cc1ccc(OC(F)(F)F)cc1)c1cccc(Oc2ccccc2)c1)C(F)(F)F (stereo unspecified) | 4000 nM |
| CC(C)(O)c1cccc(CN(CC(O)C(F)(F)F)c2cccc(Oc3ccccc3)c2)c1 (stereo unspecified) | 7800 nM |
| OC(CN(Cc1cccc(SC(F)(F)F)c1)c1cccc(Oc2ccccc2)c1)C(F)(F)F (stereo unspecified) | 390 nM |
| OC(CN(Cc1cccc(OC(F)(F)F)c1)Cc1cccc(OC(F)(F)F)c1)C(F)(F)F (stereo unspecified) | 23000 nM |

| Compound | IC50 |
| --- | --- |
| CC(C)Cc1cccc(CN(CC(O)C(F)(F)F)c2cccc(Oc3ccccc3)c2)c1 (stereo unspecified) | 540 nM |
| CCCC(O)CN(Cc1cccc(OC(F)(F)F)c1)c1ccccc1Oc1ccccc1 (stereo unspecified) | 3600 nM |
| OC(CN(Cc1cccc(-c2cccs2)c1)c1cccc(Oc2ccccc2)c1)C(F)(F)F (stereo unspecified) | 1120 nM |
| OC(CN(Cc1cccc(-c2ccccc2)c1)c1cccc(Oc2ccccc2)c1)C(F)(F)F (stereo unspecified) | 4420 nM |
| OC(CN(Cc1cccc(C(F)(F)F)c1)c1ccccc1)C(F)(F)F (stereo unspecified) | 15000 nM |
| Cc1cccc(CN(CC(O)C(F)(F)F)c2cccc(F)c2)c1 (stereo unspecified) | > 100000 nM |
| Cc1ccc(Oc2cccc(N(Cc3cccc(OC(F)(F)C(F)F)c3)C[C@@H](O)C(F)(F)F)c2)cc1 | 8.1 nM |
| COc1cccc(CN(CC(O)C(F)(F)F)c2cccc(Oc3ccccc3)c2)c1 (stereo unspecified) | 15000 nM |
| OC(CN(Cc1cccc(Oc2ccccc2)c1)c1cccc(F)c1)C(F)(F)F (stereo unspecified) | 15000 nM |
| OC(CN(Cc1ccc(-c2ccccc2)cc1)c1cccc(F)c1)C(F)(F)F (stereo unspecified) | 20000 nM |
| COc1cc(N(Cc2cccc(SC(F)(F)F)c2)C[C@@H](O)C(F)(F)F)cc(OC)c1OC | 5000 nM |
| Cc1ccc(CN(CC(O)C(F)(F)F)c2cccc(Oc3ccccc3)c2)cc1-c1ccco1 (stereo unspecified) | 3960 nM |
| Cc1ccc(Oc2cccc(N(Cc3cccc(OC(F)(F)C(F)F)c3)CC(O)C(F)(F)F)c2)cc1 (stereo unspecified) | 100 nM |
| OC(CN(Cc1ccccc1C(F)(F)F)c1cccc(F)c1)C(F)(F)F (stereo unspecified) | > 100000 nM |
| Cc1ccc(CN(CC(O)C(F)(F)F)c2cccc(F)c2)cc1 (stereo unspecified) | 65000 nM |
| OC(CN(Cc1cccc(OC(F)(F)C(F)F)c1)c1cccc(Oc2cccnc2)c1)C(F)(F)F (stereo unspecified) | 1300 nM |
| OC(Cc1ccccc1)CN(Cc1cccc(OC(F)(F)F)c1)c1ccccc1Oc1ccccc1 (stereo unspecified) | > 50000 nM |
| OC(CN(Cc1cccc(OC(F)(F)F)c1)c1ccccc1Oc1ccccc1)c1ccccc1 (stereo unspecified) | > 50000 nM |
| CCc1cc(Oc2cccc(N(Cc3cc(C(F)(F)F)ccc3F)C[C@@H](O)C(F)(F)F)c2)ccc1Cl | 49 nM |

Next, values leading:

| IC50 | Compound |
| --- | --- |
| 400 nM | OC(CN(Cc1cccc(OC(F)(F)C(F)F)c1)c1cccc(Oc2ccc(OC(F)(F)F)cc2)c1)C(F)(F)F (stereo unspecified) |
| 1.2 nM | OC(CN(Cc1cccc(Oc2cccc(C(F)(F)F)c2)c1)c1cccc(F)c1)C(F)(F)F (stereo unspecified) |
| 300 nM | OC(CN(Cc1cccc(OC(F)(F)C(F)F)c1)c1cccc(Oc2ccc(Cl)cc2)c1)C(F)(F)F (stereo unspecified) |
| 45 nM | CCc1cc(Oc2cccc(N(Cc3cccc(C(F)(F)C(F)(F)F)c3)C[C@@H](O)C(F)(F)F)c2)ccc1Cl |
| 10000 nM | OC(CN(Cc1cccc(C(F)(F)F)c1)c1cccc(C(F)(F)F)c1)C(F)(F)F (stereo unspecified) |
| 40000 nM | OC(CN(Cc1cccc(C(F)(F)F)c1)c1cccc(F)c1)C(F)(F)F (stereo unspecified) |
| 80 nM | Cc1cc(Oc2cccc(N(Cc3cccc(OC(F)(F)C(F)F)c3)CC(O)C(F)(F)F)c2)ccc1F (stereo unspecified) |
| 300 nM | OC(CN(Cc1cccc(OC(F)(F)C(F)F)c1)c1cccc(Oc2cccc(F)c2)c1)C(F)(F)F (stereo unspecified) |
| 100 nM | OC(CN(Cc1cccc(OC(F)(F)C(F)F)c1)c1cccc(Oc2cccc(F)c2F)c1)C(F)(F)F (stereo unspecified) |
| 70 nM | Cc1cc(C)cc(Oc2cccc(N(Cc3cccc(OC(F)(F)C(F)F)c3)CC(O)C(F)(F)F)c2)c1 (stereo unspecified) |
| 100 nM | O=[N+]([O-])c1c(F)cccc1Oc1cccc(N(Cc2cccc(OC(F)(F)C(F)F)c2)CC(O)C(F)(F)F)c1 (stereo unspecified) |
| 200 nM | OC(CN(Cc1cccc(OC(F)(F)C(F)F)c1)c1cccc(OCc2ccccc2)c1)C(F)(F)F (stereo unspecified) |
| 80 nM | OC(CN(Cc1cccc(OC(F)(F)C(F)F)c1)c1cccc(Oc2ccc(Cl)c(Cl)c2)c1)C(F)(F)F (stereo unspecified) |
| 400 nM | CC(C)c1ccc(Oc2cccc(N(Cc3cccc(OC(F)(F)C(F)F)c3)CC(O)C(F)(F)F)c2)cc1 (stereo unspecified) |
| 300 nM | OC(CN(Cc1cccc(OC(F)(F)C(F)F)c1)c1cccc(Oc2ccccc2Cl)c1)C(F)(F)F (stereo unspecified) |
| 80 nM | Cc1ccc(Oc2cccc(N(Cc3cccc(OC(F)(F)C(F)F)c3)CC(O)C(F)(F)F)c2)cc1C (stereo unspecified) |
| 30 nM | OC(CN(Cc1cccc(OC(F)(F)C(F)F)c1)c1cccc(Oc2cccc(Cl)c2Cl)c1)C(F)(F)F (stereo unspecified) |
| 400 nM | OC(CN(Cc1cccc(OC(F)(F)C(F)F)c1)c1cccc(OC2CCCC2)c1)C(F)(F)F (stereo unspecified) |
| 1300 nM | COc1cccc(Oc2cccc(N(Cc3cccc(OCC(O)C(F)(F)F)c3)CC(O)C(F)(F)F)c2)c1 (stereo unspecified) |
| 90 nM | OC(CN(Cc1cccc(OC(F)(F)C(F)F)c1)c1cccc(OCc2cccc(C(F)(F)F)c2)c1)C(F)(F)F (stereo unspecified) |
| 12000 nM | OC(CN(Cc1cccc(C(F)(F)F)c1)c1cccc(Cl)c1)C(F)(F)F (stereo unspecified) |
| 90 nM | Cc1cccc(Oc2cccc(N(Cc3cccc(OC(F)(F)C(F)F)c3)CC(O)C(F)(F)F)c2)c1 (stereo unspecified) |
| 400 nM | O=[N+]([O-])c1ccccc1Oc1cccc(N(Cc2cccc(OC(F)(F)C(F)F)c2)CC(O)C(F)(F)F)c1 (stereo unspecified) |
| 80 nM | CC(C)(C)c1cccc(Oc2cccc(N(Cc3cccc(OC(F)(F)C(F)F)c3)CC(O)C(F)(F)F)c2)c1 (stereo unspecified) |
| 10000 nM | Cc1cccc(N(Cc2cccc(C(F)(F)F)c2)CC(O)C(F)(F)F)c1 (stereo unspecified) |
| 200 nM | Cc1cc(Oc2cccc(N(Cc3cccc(OC(F)(F)C(F)F)c3)CC(O)C(F)(F)F)c2)ccc1Cl (stereo unspecified) |
| 35 nM | CCc1cc(Oc2cccc(N(Cc3cccc(OC(F)(F)F)c3)C[C@@H](O)C(F)(F)F)c2)ccc1Cl |
